Test results from ChEMBL document CHEMBL1123748, “Opioid agonist and antagonist activities of monofunctional nitrogen mustard analogues of beta-chlornaltrexamine” (1987).

What was measured:
Mus musculus [1] = species on record: Mus musculus; test: Opioid agonist activity was determined in Mouse vas deferens (MVD); type: functional
Cavia porcellus [2] = species on record: Cavia porcellus; test: Antagonist activity was determined by partial agonist activity of morphine in Guinea pig ileum (GPI); type: functional
Cavia porcellus [3] = species on record: Cavia porcellus; test: Opioid agonist activity was determined as potency ratio relative to morphine in Guinea pig ileum (GPI); type: functional
Cavia porcellus [4] = species on record: Cavia porcellus; test: Antagonist activity was determined by partial agonist activity of EK in Guinea pig ileum (GPI); type: functional
Mus musculus [5] = species on record: Mus musculus; test: IC50 ratio for leucine-enkephalin rather than DADLE determined in Mouse vas deferens (MVD); type: functional
Cavia porcellus [6] = species on record: Cavia porcellus; test: Antagonist activity was determined by partial agonist activity of EK in Guinea pig ileum (GPI); irreversible agonist activity; type: functional, organism-based
Cavia porcellus [7] = species on record: Cavia porcellus; test: Antagonist activity was determined by partial agonist activity of morphine in Guinea pig ileum (GPI); irreversible agonist activity; type: functional, organism-based

With `CN(CCCl)[C@@H]1CC[C@@]2(O)C3Cc4ccc(O)c5c4C2(CCN3CC2CC2)[C@H]1O5` (stereo not given in full) the IC20 (Mus musculus [1]) was 10 nM, the IC50 ratio (Cavia porcellus [2]) was 48.8 and the Potency ratio (Cavia porcellus [3]) was 5.3. It also gave an IC50 ratio (Cavia porcellus [4]) of 17.3 and an IC50 ratio (Mus musculus [5]) of 2.9.
For `CN(CCCl)[C@H]1CC[C@@]2(O)C3Cc4ccc(O)c5c4C2(CCN3CC2CC2)[C@H]1O5` (stereo not given in full), the IC20 (Mus musculus [1]) was 3 nM, the IC50 ratio (Cavia porcellus [6]) was “irreversible agonist activity” and the IC50 ratio (Cavia porcellus [7]) was “irreversible agonist activity”. The Potency ratio (Cavia porcellus [3]) was 159 and the IC50 ratio (Mus musculus [5]) was 5.
